Activity calls are given as the source filed them. The rule behind the calls is not given here.
Experiments:
[1] = Lipophilicity, log D of the compound; type: physicochemical; conditions: octanol/water
Mus musculus [2] = assay: Anesthetic activity in mouse assessed as loss of righting […] administered as single injection via caudal vein; type: functional; conditions: route iv
[3] = Toxicity in mouse administered as single injection via caudal vein; conditions: in vivo, route iv
[4] = Therapeutic index, ratio of LD50 for toxicity in mouse to ED50 for anesthetic activity in mouse; type: organism-based; conditions: in vivo, read-out: Ratio LD50/ED50
[5] = Toxicity in mouse assessed as adverse effect at 1.5 times ED50, iv; conditions: in vivo
Rattus norvegicus = assay: Anesthetic activity in iv dosed rat assessed as loss of righting […] administered continuously; type: functional
[6] = Toxicity in iv dosed rat administered continuously; type: organism-based; conditions: in vivo
[7] = Therapeutic index, ratio of LD50 for toxicity in iv dosed rat to ED50 for anesthetic activity in iv dosed rat; type: organism-based; conditions: in vivo, read-out: Ratio LD50/ED50
[8] = Toxicity in iv dosed rat assessed as muscle fibrillation administered continuously; type: organism-based; conditions: in vivo
[9] = Toxicity in iv dosed rat assessed as convulsion administered continuously; type: organism-based; conditions: in vivo
[10] = Toxicity in iv dosed rat assessed as muscular rigidity administered continuously; type: organism-based; conditions: in vivo
[11] = Toxicity in iv dosed rat assessed as cyanosis administered continuously; type: organism-based; conditions: in vivo
[12] = Toxicity in iv dosed rat assessed as irregular respiratory rhythm administered continuously; type: organism-based; conditions: in vivo
[13] = Hepatotoxicity in iv dosed rat assessed as change in AST level administered continuously; type: toxicity, organism-based; conditions: in vivo
[14] = Hepatotoxicity in iv dosed rat assessed as change in ALT level administered continuously; type: toxicity, organism-based; conditions: in vivo
[15] = Nephrotoxicity in iv dosed rat assessed as change in creatinine level administered continuously; type: toxicity, organism-based; conditions: in vivo
[16] = Nephrotoxicity in iv dosed rat assessed as change in urea level administered continuously; type: toxicity, organism-based; conditions: in vivo
[17] = Cardiotoxicity in iv dosed rat assessed as change in CK-MB level administered continuously; type: toxicity, organism-based; conditions: in vivo
[18] = Cardiotoxicity in iv dosed rat assessed as change in alpha-HBDH level administered continuously; type: toxicity, organism-based; conditions: in vivo
[19] = Cardiotoxicity in iv dosed rat assessed as change in LDH level administered continuously; type: toxicity, organism-based; conditions: in vivo
[20] = Hepatotoxicity in iv dosed rat assessed as morphological change in liver administered continuously; type: toxicity, organism-based; conditions: in vivo
[21] = Nephrotoxicity in iv dosed rat assessed as morphological change in kidney administered continuously; type: toxicity, organism-based; conditions: in vivo
[22] = Cardiotoxicity in iv dosed rat assessed as morphological change in heart administered continuously; type: toxicity, organism-based; conditions: in vivo
[23] = Toxicity in iv dosed rat assessed as body weight loss administered continuously as infusion for 2 weeks; type: organism-based; conditions: in vivo, 336 h
[24] = Solubility of the compound at pH 2; type: physicochemical; conditions: buffer
[25] = Toxicity in mouse assessed as convulsion at 1.5 times ED50, iv; conditions: in vivo
[26] = Toxicity in mouse assessed as severe respiratory suppression at 1.5 times ED50, iv; conditions: in vivo
[27] = Toxicity in mouse assessed as angular tension at 1.5 times ED50, iv; conditions: in vivo
[28] = Toxicity in mouse assessed as ankylosis at 1.5 times ED50, iv; conditions: in vivo
Mus musculus [29] = assay: Anesthetic activity in mouse assessed as reduction in recovery time of righting reflex at 1.5 times ED50, iv; type: functional, organism-based
[30] = Toxicity in mouse assessed as muscular rigidity at 1.5 times ED50, iv; conditions: in vivo
[31] = Stability in human liver microsomes measured within 60 mins; type: ADME, Microsome; conditions: 1 h
[32] = Stability in plasma (unknown origin); type: ADME, cell-free; conditions: unidentified
[33] = target: Voltage-gated inwardly rectifying potassium channel KCNH2 (Homo sapiens, UniProt Q12809); assay: Inhibition of human ERG
Chain of Voltage-gated inwardly rectifying potassium channel KCNH2 (Q12809 whole entry): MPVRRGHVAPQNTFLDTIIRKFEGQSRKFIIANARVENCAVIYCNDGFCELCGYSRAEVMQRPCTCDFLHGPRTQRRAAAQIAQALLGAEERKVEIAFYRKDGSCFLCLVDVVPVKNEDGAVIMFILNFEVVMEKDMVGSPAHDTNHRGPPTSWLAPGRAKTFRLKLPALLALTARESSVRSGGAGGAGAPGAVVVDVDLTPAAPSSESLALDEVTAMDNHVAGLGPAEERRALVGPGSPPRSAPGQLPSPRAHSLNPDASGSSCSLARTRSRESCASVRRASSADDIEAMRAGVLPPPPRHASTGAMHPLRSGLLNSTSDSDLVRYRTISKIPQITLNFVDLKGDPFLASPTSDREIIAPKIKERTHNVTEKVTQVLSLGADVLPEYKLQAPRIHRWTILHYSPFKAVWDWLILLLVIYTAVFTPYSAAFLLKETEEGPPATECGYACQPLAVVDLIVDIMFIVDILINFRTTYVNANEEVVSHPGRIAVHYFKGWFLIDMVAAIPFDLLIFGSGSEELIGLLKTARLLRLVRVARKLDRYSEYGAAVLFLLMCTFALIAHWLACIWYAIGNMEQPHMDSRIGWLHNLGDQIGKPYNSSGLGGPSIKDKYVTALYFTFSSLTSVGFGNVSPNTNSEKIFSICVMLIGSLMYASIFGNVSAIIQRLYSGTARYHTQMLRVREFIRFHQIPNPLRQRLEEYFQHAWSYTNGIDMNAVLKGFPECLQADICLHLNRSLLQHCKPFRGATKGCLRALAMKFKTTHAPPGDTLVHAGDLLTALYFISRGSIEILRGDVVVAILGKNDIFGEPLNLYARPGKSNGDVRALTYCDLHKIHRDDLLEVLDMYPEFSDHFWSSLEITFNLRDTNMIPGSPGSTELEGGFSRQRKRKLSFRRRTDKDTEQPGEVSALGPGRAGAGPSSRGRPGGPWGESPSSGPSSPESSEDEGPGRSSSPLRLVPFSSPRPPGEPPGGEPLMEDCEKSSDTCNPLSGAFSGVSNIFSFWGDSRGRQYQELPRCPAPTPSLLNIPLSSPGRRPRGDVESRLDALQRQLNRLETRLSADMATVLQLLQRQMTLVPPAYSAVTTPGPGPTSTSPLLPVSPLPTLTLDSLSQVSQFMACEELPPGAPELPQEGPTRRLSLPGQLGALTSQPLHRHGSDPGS

HEK293 = assay: Reversible inhibition of human NR2B receptor expressed in HEK293 cells assessed as inhibition of L-glutamate-induced open-phase current at 500 uM in presence of glycine by whole-cell patch-clamp method relative to control; type: cell-based

| Compound | logD [1] | ED50 (Mus musculus [2]) | LD50 [3] | selectivity ratio [4] | other results |
| --- | --- | --- | --- | --- | --- |
| Nc1ccc(C(=O)OCCN2CCOCC2)cc1 | 0.54 | 148 mg/kg | 365 mg/kg | 2.46 | – |
| CCN(CCO)CCOC(=O)c1ccc(N)cc1 | 0.47 | 90.2 mg/kg | 115 mg/kg | < 1.5 | – |
| CCN1CCN(CCOC(=O)c2ccc(N)cc2)CC1 | 0.81 | 56 mg/kg | 64.3 mg/kg | < 1.5 | – |
| CC1COCCN1CCOC(=O)c1ccc(N)cc1 (stereo unspecified) | 0.62 | 119 mg/kg | 253 mg/kg | 2.13 | – |
| CCN(CC)CCOC(=O)c1ccc(N)cc1 [PROCAINE] | 1.07 | 42.8 mg/kg | 70.5 mg/kg | 1.65 | Activity [5]: Toxic; ED50 (Rattus norvegicus): 50.4 mg/kg; LD50 [6]: 78.8 mg/kg; selectivity ratio [7]: 1.56; Activity [8]: Toxic; Activity [9]: Toxic; Activity [10]: Toxic; Activity [11]: Toxic; Activity [12]: Toxic; Activity [13]: Non-Toxic; Activity [14]: Non-Toxic; Activity [15]: Non-Toxic; Activity [16]: Non-Toxic; Activity [17]: Non-Toxic; Activity [18]: Non-Toxic; Activity [19]: Non-Toxic; Activity [20]: Non-Toxic; Activity [21]: Non-Toxic; Activity [22]: Non-Toxic; Activity [23]: Non-Toxic |
| CC(C)(C)N1CCN(CCOC(=O)c2ccc(N)cc2)CC1 | 1.15 | 42.2 mg/kg | 78.4 mg/kg | 1.86 | – |
| CC(C)N1CCN(CCOC(=O)c2ccc(N)cc2)CC1 | 0.92 | 52.8 mg/kg | 58.6 mg/kg | < 1.5 | – |
| Nc1ccc(C(=O)OCCN2CCS(=O)(=O)CC2)cc1 | 1.63 | 45.5 mg/kg | 115 mg/kg | 2.53 | solubility [24]: Insoluble |
| Nc1ccc(C(=O)OCCN(CCO)CCO)cc1 | -0.19 | 128 mg/kg | 160 mg/kg | < 1.5 | – |
| CN1CCN(CCOC(=O)c2ccc(N)cc2)CC1 | 0.43 | 84.2 mg/kg | 100 mg/kg | < 1.5 | – |
| CCN(CCOC)CCOC(=O)c1ccc(N)cc1 | 0.96 | 39.6 mg/kg | 60.3 mg/kg | 1.52 | – |
| Nc1ccc(C(=O)OCCN2CCSCC2)cc1 | 1.58 | 54 mg/kg | 126 mg/kg | 2.33 | solubility [24]: Insoluble |
| COCCN(CCOC)CCOC(=O)c1ccc(N)cc1 | 0.83 | 55.2 mg/kg | 104 mg/kg | 1.89 | – |
| CC1CC(C)CN(CCOC(=O)c2ccc(N)cc2)C1 (stereo unspecified) | 3.2 | 33.9 mg/kg | 68.5 mg/kg | 2.02 | Activity [25]: Toxic; Activity [26]: Toxic; Activity [27]: Toxic; Activity [28]: Toxic |
| CC1CN(CCOC(=O)c2ccc(N)cc2)CCO1 (stereo unspecified) | 1 | 90.2 mg/kg | 188 mg/kg | 2.08 | Activity (Mus musculus [29]): Active; Activity [30]: Toxic |
| CC1CN(CCOC(=O)c2ccc(N)cc2)CC(C)O1 (stereo unspecified) | 1.24 | 59.3 mg/kg | 159 mg/kg | 2.68 | Activity (Mus musculus [29]): Active; Activity [5]: Toxic; ED50 (Rattus norvegicus): 66 mg/kg; LD50 [6]: 180 mg/kg; selectivity ratio [7]: 2.73; Stability [31]: Stable; Stability [32]: Unstable; Activity [13]: Non-Toxic; Activity [14]: Non-Toxic; Activity [15]: Non-Toxic; Activity [16]: Non-Toxic; Activity [17]: Non-Toxic; Activity [18]: Non-Toxic; Activity [19]: Non-Toxic; Activity [20]: Non-Toxic; Activity [21]: Non-Toxic; Activity [22]: Non-Toxic; Activity [23]: Non-Toxic; IC50 [33]: > 30 µM; inhibition (HEK293): > 80% |
| CC1COCC(C)N1CCOC(=O)c1ccc(N)cc1 (stereo unspecified) | 0.42 | 160 mg/kg | 399 mg/kg | 2.49 | – |
| Nc1ccc(C(=O)OCCN2CC[S+]([O-])CC2)cc1 | 1.55 | 42.7 mg/kg | 110 mg/kg | 2.57 | solubility [24]: Insoluble |

From ChEMBL document CHEMBL5131469, “Design, synthesis and biological evaluation of novel procaine derivatives for intravenous anesthesia” (Bioorg Med Chem Lett, 2022)
